Assay results from the supplement of paper PMC10307832.

How the values were obtained:
Assay in all cases: relative viability (nuclei count vs DMSO), 5 days (fraction); higher = more cells survive
[1] = compound: CCOC1=CC=CC=C1N=NC2=C(NN(C2=O)C3=NC(=CS3)C4=CC=CC=C4)C [BAM7] + Nc1nc2[nH]cc(CCc3ccc(C(=O)N[C@@H](CCC(=O)O)C(=O)O)cc3)c2c(=O)[nH]1 [Pemetrexed] (partner 0.2 µM)
Procedure, shortened: (§1)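 Cells from lung cancer lines were seeded into 1536-well plates and, one day later, dosed by pin tool. Treatments were either a single drug or a fixed dose of an anchor drug with five library-drug doses (not always all listed) in √10 steps. After 5 days, nuclei were stained in a one-step fixation (final 0.05% Triton X-100, 1% formaldehyde, 1 ug/ml Hoechst) and counted on 4× images, and relative viability is the treated-to-vehicle nuclei ratio, as the median of duplicate plates.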

[2] = compound: CCn1c(-c2nonc2N)nc2c(C#CC(C)(C)O)ncc(OC[C@H]3CCCNC3)c21 + COc1cc2c(Oc3ccc(NC(=O)C4(C(=O)Nc5ccc(F)cc5)CC4)cc3F)ccnc2cc1OCCCN1CCOCC1 [Foretinib] (partner 0.25 µM)
Procedure, shortened: as §1

[3] = compound: CCn1c(-c2nonc2N)nc2c(C#CC(C)(C)O)ncc(OC[C@H]3CCCNC3)c21 + Cc1cc(Nc2cc(N3CCN(C)CC3)nc(Sc3ccc(NC(=O)C4CC4)cc3)n2)n[nH]1 [Tozasertib] (partner 0.1 µM)
Procedure, shortened: as §1

[4] = compound: CCn1c(-c2nonc2N)nc2c(C#CC(C)(C)O)ncc(OC[C@H]3CCCNC3)c21 + Nc1nc2[nH]cc(CCc3ccc(C(=O)N[C@@H](CCC(=O)O)C(=O)O)cc3)c2c(=O)[nH]1 [Pemetrexed] (partner 0.2 µM)
Procedure, shortened: as §1

| Cell Line | relative viability ([1]; first compound 0.5 µM) | relative viability ([1]; first compound 5 µM) | relative viability ([1]; first compound 15.81 µM) | relative viability ([1]; first compound 50 µM) | relative viability ([2]; first compound 0.01 µM) | relative viability ([2]; first compound 0.03162 µM) | relative viability ([2]; first compound 0.1 µM) | relative viability ([2]; first compound 0.3162 µM) | relative viability ([2]; first compound 1 µM) | relative viability ([3]; first compound 0.01 µM) | relative viability ([3]; first compound 0.03162 µM) | relative viability ([3]; first compound 0.1 µM) | relative viability ([3]; first compound 0.3162 µM) | relative viability ([3]; first compound 1 µM) | relative viability ([4]; first compound 0.01 µM) | relative viability ([4]; first compound 0.03162 µM) | relative viability ([4]; first compound 0.1 µM) | relative viability ([4]; first compound 0.3162 µM) | relative viability ([4]; first compound 1 µM) |
| --- | --- | --- | --- | --- | --- | --- | --- | --- | --- | --- | --- | --- | --- | --- | --- | --- | --- | --- | --- |
| LCLC-103H | 0.524 | 0.491 | 0.487 | 0.444 | 0.792 | 0.981 | 0.749 | 0.736 | 0.847 | 0.41 | 0.555 | 0.432 | 0.472 | 0.453 | 0.449 | 0.498 | 0.476 | 0.456 | 0.439 |
| LCLC-97TM1 | 0.19 | 0.147 |  | 0.159 | 1.03 | 0.91 | 1.01 | 0.877 | 0.874 | 0.203 | 0.31 | 0.211 | 0.271 | 0.204 | 0.169 | 0.179 | 0.141 | 0.147 | 0.175 |
| NCI-H1355 | 1.08 | 0.978 | 1 | 1.01 | 0.954 | 1.05 | 0.937 | 0.906 | 0.81 | 0.572 | 0.629 | 0.549 | 0.611 | 0.612 | 0.959 | 0.981 | 1.02 | 1.02 | 1.06 |
| HOP-62 | 0.269 | 0.356 | 0.328 | 0.371 | 1.08 | 1.13 | 1.08 | 0.985 | 1.16 | 0.369 | 0.316 | 0.308 | 0.406 | 0.404 | 0.289 | 0.407 | 0.289 | 0.288 | 0.286 |
| NCI-H2085 | 1.02 | 0.675 | 0.844 | 0.992 | 0.857 | 0.901 | 0.985 | 0.994 | 0.881 | 0.81 | 0.771 | 0.811 | 0.822 | 0.729 | 0.934 | 0.88 | 0.914 | 0.873 | 0.992 |
